From patent US20240269115A1, “PYRAZOLONE COMPOUNDS FOR USE IN DEGENERATIVE RETINAL DISEASES” (FLONEXT S.R.L., priority 2021, published 2024)

Key:
[1] = system: NalO3-induced damage of the RPE layer in macular degeneration model mice; experiment: Retinal pigment epithelium damage by RPE65 immunofluorescence in the NalO3 mouse model of macular degeneration; type: in vivo, C57BL/6J male mice; conditions: eye drops 5 μl 3 times a day, days 1-3 (dipyrone 16.65 μg, propyphenazone 11.5 μg, indomethacin 17.85 μg); NalO3 20 mg/kg retro-orbital vein; retina collected day 4; mean±SEM
Description: (§1) To create a valid model of macular degeneration, systemic administration (via the retro-orbital vein) of NalO3 was carried out in C57BL/6J male mice aged 5-8 weeks and weighing 22-25 g supplied by the Charles River company (Milan, Italy). A total of 30 mice were used to carry out the experiments described below. The animals were kept in a temperature and humidity-controlled environment (12-hour dark/light cycle, free access to food and water).
(§2) As described above, the mouse model obtained by systemic administration (via the retro-orbital vein) of NalO3 is a model of macular degeneration. In fact, 3 days after administration, NalO3 induced in mice persistent retinal damage with characteristics similar to those observed in age-related macular degeneration in humans.
(§3) In order to evaluate the efficacy of dipyrone and propyphenazone, preferred compounds belonging to the pyrazolone class, in reducing and treating the retinal damage typical of macular degeneration, a model of macular degeneration was developed with an experiment on 5 groups of mice. The mice were administered dipyrone, propyphenazone, indomethacin or their vehicle, locally via eye drops.
(§4) In particular, a group of 6 mice (used as a control) were given vehicle (V1) (NaCl, 0.9%) of NalO3 (1 ml/kg) 60 minutes before the injection into the retro-orbital vein and subsequently given eye drops (5 μl) containing the vehicle (V2) (4% DMSO, 4% Tween 80 in 0.9% NaCl) of the drugs 3 times a day by instillation. […]
Damage to the RPE (retinal pigmented epithelium) was assessed by direct immunofluorescence. […]
The staining intensity of the RPE layer was quantified using a primary antibody (RPE65, #ab13826, mouse monoclonal, 1:100, Abcam, Cambridge, UK) to which a second antibody (fluorophore-labelled, Alexa Fluor 488, #A28175, Thermo Fisher Scientific) binds in the 5 groups of mice treated with V2/V1, V2/NalO3, dipyrone/NalO3, propyphenazone/NalO and indomethacin/NalO3. […]

[2] = system: NalO3-induced increase in retinal 4-hydroxynonenal (4-HNE) in macular degeneration model mice; experiment: Retinal oxidative stress by 4-HNE immunofluorescence in the NalO3 mouse model of macular degeneration; type: in vivo, C57BL/6J male mice; conditions: eye drops 5 μl 3 times a day, days 1-3 (dipyrone 16.65 μg, propyphenazone 11.5 μg, indomethacin 17.85 μg); NalO3 20 mg/kg retro-orbital vein; retina collected day 4; mean±SEM
Description: as §1, §2, §3, §4
The level of oxidative stress was also assessed throughout the thickness of the retina by measuring the immunofluorescence intensity for the reactive carbonyl species, 4-hydroxynonenal (4-HNE), a final indicator of oxidative stress.
Levels of 4-HNE were quantified using a primary antibody (#ab48506, monoclonal mouse [HNEJ-2], 1:40, Abcam, Cambridge, UK) to which a second antibody (fluorophore-labelled, Alexa Fluor 594, #A A32742, Thermo Fisher Scientific) binds in the 5 groups of mice treated with V2/V1, V2/NalO3, dipyrone/NalO3, propyphenazone/NalO3 and indomethacin/NalO3. […]

Cc1c(N(C)CS(=O)(=O)[O-])c(=O)n(-c2ccccc2)n1C.[Na+] [dipyrone, Dipyrone]
reduction of the damage induced by NalO3 on the RPE layer (RPE65 staining intensity) compared to V2 [1]: 87.8±7.8% | reduction in retinal 4-HNE levels (immunofluorescence) vs. V2 [2]: 69.7±11.8%

COc1ccc2c(c1)c(CC(=O)O)c(C)n2C(=O)c1ccc(Cl)cc1 [indomethacin, Indomethacin]
reduction of the damage induced by NalO3 on the RPE layer (RPE65 staining intensity) compared to V2 [1]: 5.7±14.9% | reduction in retinal 4-HNE levels (immunofluorescence) vs. V2 [2]: 17.5±10.5%

Cc1c(C(C)C)c(=O)n(-c2ccccc2)n1C [propyphenazone, Propyphenazone]
reduction of the damage induced by NalO3 on the RPE layer (RPE65 staining intensity) compared to V2 [1]: 99.2±23.0% | reduction in retinal 4-HNE levels (immunofluorescence) vs. V2 [2]: 81.3±7.0%
